Laboratory results taken from article PMC5931107, “Clinical pharmacodynamic/exposure characterisation of the multikinase inhibitor ilorasertib (ABT-348) in a phase 1 dose-escalation trial” (British Journal of Cancer, 2018).

Tests used:
[1] = Safety: treatment-emergent adverse events (CTCAE v4.0), phase 1 trial; type: in vivo, human
Procedure: Safety was assessed on the basis of AEs, physical examination, vital signs, electrocardiograms, multiple-gated acquisition scans, and clinical laboratory test assessments. AEs were graded using National Cancer Institute CTCAE version 4.0.
Descriptive statistics were used for demographic variables. The numbers and percentages of patients with treatment-emergent AEs (TEAEs) were tabulated using the Medical Dictionary for Regulatory Activities version 16.0 system organ class and preferred term, and further classified according to CTCAE version 4.0 criteria. The safety data set included all patients who received one or more doses of ilorasertib. The pharmacokinetic data set included all patients who received one or more doses of ilorasertib and had one or more pharmacokinetic samples. Values for pharmacokinetic parameters were determined using non-compartmental methods, with data analysed separately for each arm. A repeated measures analysis was performed for Tmax and dose-normalised Cmax, AUCt, and AUC∞. The model included random effects for patient and fixed effects for dose level, day, and the interaction of dose level and day. To assess effects of exposure on pharmacodynamic biomarkers, Cmax was employed as the directly measured marker of exposure for the rapid changes in DBP and PlGF pre-steady-state, while AUC∞ reflected exposure variability at the time of post-multiple-dose skin biopsy. Descriptive statistics were used to summarise ECOG performance status. The efficacy data set included all patients who received one or more doses of ilorasertib.

[2] = tested on: VEGFR3; parameters: method as in PMID 22935731; settings: read-out: Cellular PD marker IC50 (95% confidence limits); cited from earlier work
[3] = tested on: c-KIT; parameters: method as in PMID 22935731; settings: KIT cellular phosphorylation, ligand stimulated; read-out: Cellular PD marker IC50 (95% confidence limits); cited from earlier work

SMILES: Nc1ncc(-c2cnn(CCO)c2)c2scc(-c3ccc(NC(=O)Nc4cccc(F)c4)cc3)c12 [ilorasertib, Ilorasertib]
- Any grade AE, patients n (%) ([1]; Arm I PO QD, N = 23): 22 (96)
- Constipation, any grade TEAE, patients n (%) ([1]; Arm I PO QD, N = 23): 6 (26)
- Decreased appetite, any grade TEAE, patients n (%) ([1]; Arm I PO QD, N = 23): 8 (35)
- Diarrhoea, any grade TEAE, patients n (%) ([1]; Arm I PO QD, N = 23): 5 (22)
- Diarrhoea, grade 3 or 4 TEAE, patients n (%) ([1]; Arm I PO QD, N = 23): 1 (4)
- Dyspnoea, any grade TEAE, patients n (%) ([1]; Arm I PO QD, N = 23): 2 (9)
- Fatigue, any grade TEAE, patients n (%) ([1]; Arm I PO QD, N = 23): 13 (57)
- Grade 3 or 4 AE, patients n (%) ([1]; Arm I PO QD, N = 23): 14 (61)
- Headache, any grade TEAE, patients n (%) ([1]; Arm I PO QD, N = 23): 5 (22)
- Hypertension, any grade TEAE, patients n (%) ([1]; Arm I PO QD, N = 23): 8 (35)
- Hypertension, grade 3 or 4 TEAE, patients n (%) ([1]; Arm I PO QD, N = 23): 4 (17)
- Hypokalaemia, any grade TEAE, patients n (%) ([1]; Arm I PO QD, N = 23): 3 (13)
- Hypomagnesaemia, any grade TEAE, patients n (%) ([1]; Arm I PO QD, N = 23): 3 (13)
- Nausea, any grade TEAE, patients n (%) ([1]; Arm I PO QD, N = 23): 8 (35)
- Neutropenia, grade 3 or 4 TEAE, patients n (%) ([1]; Arm I PO QD, N = 23): 0
- Thrombocytopenia, any grade TEAE, patients n (%) ([1]; Arm I PO QD, N = 23): 3 (13)
- Urinary tract infection, any grade TEAE, patients n (%) ([1]; Arm I PO QD, N = 23): 2 (9)
- Vomiting, any grade TEAE, patients n (%) ([1]; Arm I PO QD, N = 23): 3 (13)
- Any grade AE, patients n (%) ([1]; Arm II PO BID, N = 28): 27 (96)
- Constipation, any grade TEAE, patients n (%) ([1]; Arm II PO BID, N = 28): 5 (18)
- Decreased appetite, any grade TEAE, patients n (%) ([1]; Arm II PO BID, N = 28): 9 (32)
- Diarrhoea, any grade TEAE, patients n (%) ([1]; Arm II PO BID, N = 28): 8 (29)
- Diarrhoea, grade 3 or 4 TEAE, patients n (%) ([1]; Arm II PO BID, N = 28): 1 (4)
- Dyspnoea, any grade TEAE, patients n (%) ([1]; Arm II PO BID, N = 28): 3 (11)
- Fatigue, any grade TEAE, patients n (%) ([1]; Arm II PO BID, N = 28): 14 (50)
- Grade 3 or 4 AE, patients n (%) ([1]; Arm II PO BID, N = 28): 15 (54)
- Headache, any grade TEAE, patients n (%) ([1]; Arm II PO BID, N = 28): 4 (14)
- Hypertension, any grade TEAE, patients n (%) ([1]; Arm II PO BID, N = 28): 9 (32)
- Hypertension, grade 3 or 4 TEAE, patients n (%) ([1]; Arm II PO BID, N = 28): 4 (14)
- Hypokalaemia, any grade TEAE, patients n (%) ([1]; Arm II PO BID, N = 28): 3 (11)
- Hypomagnesaemia, any grade TEAE, patients n (%) ([1]; Arm II PO BID, N = 28): 3 (11)
- Nausea, any grade TEAE, patients n (%) ([1]; Arm II PO BID, N = 28): 5 (18)
- Neutropenia, grade 3 or 4 TEAE, patients n (%) ([1]; Arm II PO BID, N = 28): 2 (7)
- Thrombocytopenia, any grade TEAE, patients n (%) ([1]; Arm II PO BID, N = 28): 5 (18)
- Urinary tract infection, any grade TEAE, patients n (%) ([1]; Arm II PO BID, N = 28): 5 (18)
- Vomiting, any grade TEAE, patients n (%) ([1]; Arm II PO BID, N = 28): 8 (29)
- Any grade AE, patients n (%) ([1]; Arm III i.v., N = 7): 7 (100)
- Constipation, any grade TEAE, patients n (%) ([1]; Arm III i.v., N = 7): 2 (29)
- Decreased appetite, any grade TEAE, patients n (%) ([1]; Arm III i.v., N = 7): 3 (43)
- Diarrhoea, any grade TEAE, patients n (%) ([1]; Arm III i.v., N = 7): 2 (29)
- Diarrhoea, grade 3 or 4 TEAE, patients n (%) ([1]; Arm III i.v., N = 7): 0
- Dyspnoea, any grade TEAE, patients n (%) ([1]; Arm III i.v., N = 7): 2 (29)
- Fatigue, any grade TEAE, patients n (%) ([1]; Arm III i.v., N = 7): 1 (14)
- Grade 3 or 4 AE, patients n (%) ([1]; Arm III i.v., N = 7): 3 (43)
- Headache, any grade TEAE, patients n (%) ([1]; Arm III i.v., N = 7): 0
- Hypertension, any grade TEAE, patients n (%) ([1]; Arm III i.v., N = 7): 3 (43)
- Hypertension, grade 3 or 4 TEAE, patients n (%) ([1]; Arm III i.v., N = 7): 2 (29)
- Hypokalaemia, any grade TEAE, patients n (%) ([1]; Arm III i.v., N = 7): 0
- Hypomagnesaemia, any grade TEAE, patients n (%) ([1]; Arm III i.v., N = 7): 0
- Nausea, any grade TEAE, patients n (%) ([1]; Arm III i.v., N = 7): 2 (29)
- Neutropenia, grade 3 or 4 TEAE, patients n (%) ([1]; Arm III i.v., N = 7): 0
- Thrombocytopenia, any grade TEAE, patients n (%) ([1]; Arm III i.v., N = 7): 0
- Urinary tract infection, any grade TEAE, patients n (%) ([1]; Arm III i.v., N = 7): 2 (29)
- Vomiting, any grade TEAE, patients n (%) ([1]; Arm III i.v., N = 7): 1 (14)
- Any grade AE, patients n (%) ([1]; Total, N = 58): 56 (97)
- Constipation, any grade TEAE, patients n (%) ([1]; Total, N = 58): 13 (22)
- Decreased appetite, any grade TEAE, patients n (%) ([1]; Total, N = 58): 20 (34)
- Diarrhoea, any grade TEAE, patients n (%) ([1]; Total, N = 58): 15 (26)
- Diarrhoea, grade 3 or 4 TEAE, patients n (%) ([1]; Total, N = 58): 2 (3)
- Dyspnoea, any grade TEAE, patients n (%) ([1]; Total, N = 58): 7 (12)
- Fatigue, any grade TEAE, patients n (%) ([1]; Total, N = 58): 28 (48)
- Grade 3 or 4 AE, patients n (%) ([1]; Total, N = 58): 32 (55)
- Headache, any grade TEAE, patients n (%) ([1]; Total, N = 58): 9 (16)
- Hypertension, any grade TEAE, patients n (%) ([1]; Total, N = 58): 20 (34)
- Hypertension, grade 3 or 4 TEAE, patients n (%) ([1]; Total, N = 58): 10 (17)
- Hypokalaemia, any grade TEAE, patients n (%) ([1]; Total, N = 58): 6 (10)
- Hypomagnesaemia, any grade TEAE, patients n (%) ([1]; Total, N = 58): 6 (10)
- Nausea, any grade TEAE, patients n (%) ([1]; Total, N = 58): 15 (26)
- Neutropenia, grade 3 or 4 TEAE, patients n (%) ([1]; Total, N = 58): 2 (3)
- Thrombocytopenia, any grade TEAE, patients n (%) ([1]; Total, N = 58): 8 (14)
- Urinary tract infection, any grade TEAE, patients n (%) ([1]; Total, N = 58): 9 (16)
- Vomiting, any grade TEAE, patients n (%) ([1]; Total, N = 58): 12 (21)
- Grade 3 or 4 TEAE diarrhoea, patients ([1]; all 58 patients): 3%
- Grade 3 or 4 TEAE hypertension, patients ([1]; all 58 patients): 17%
- Grade 3 or 4 TEAE neutropenia, patients ([1]; all 58 patients): 3%
- Patients with TEAEs ([1]; all 58 patients): 97%
- Patients with TEAEs considered possibly or probably related to ilorasertib ([1]; all 58 patients): 66%
- Patients with TEAEs that led to discontinuation ([1]; all 58 patients): 17%
- Patients with grade 3 or 4 TEAEs ([1]; all 58 patients): 55%
- Patients with treatment-emergent serious AEs ([1]; all 58 patients): 36%
- Patients with treatment-related grade 3 or 4 TEAEs ([1]; all 58 patients): 28%
- Serious AE fatigue, patients ([1]; all 58 patients): 3%
- Serious AE small intestinal obstruction, patients ([1]; all 58 patients): 7%
- TEAE constipation, patients ([1]; all 58 patients): 22%
- TEAE decreased appetite (anorexia), patients ([1]; all 58 patients): 34%
- TEAE diarrhoea, patients ([1]; all 58 patients): 26%
- TEAE fatigue, patients ([1]; all 58 patients): 48%
- TEAE hypertension, patients ([1]; all 58 patients): 34%
- TEAE nausea, patients ([1]; all 58 patients): 26%
- TEAE vomiting, patients ([1]; all 58 patients): 21%
- Treatment-related TEAE decreased appetite, patients ([1]; all 58 patients): 19%
- Treatment-related TEAE diarrhoea, patients ([1]; all 58 patients): 14%
- Treatment-related TEAE fatigue, patients ([1]; all 58 patients): 24%
- Treatment-related TEAE hypertension, patients ([1]; all 58 patients): 29%
- Treatment-related TEAE nausea, patients ([1]; all 58 patients): 17%
- Treatment-related TEAE thrombocytopenia, patients ([1]; all 58 patients): 14%
- Treatment-related TEAE vomiting, patients ([1]; all 58 patients): 10%
- Treatment-related grade 3 or 4 diarrhoea, patients ([1]; all 58 patients): 3%
- Treatment-related grade 3 or 4 hypertension, patients ([1]; all 58 patients): 14%
- Treatment-related grade 3 or 4 neutropenia, patients ([1]; all 58 patients): 3%
- Relatedness of deaths to ilorasertib (investigator) ([1]; in vivo): none of the deaths were considered related to ilorasertib
- Deaths resulting from TEAEs ([1]; one patient in Arm I, two in Arm II, within 30 days of discontinuing the study): three patients
- IC50 [2]: 2 nM
- IC50 [3]: 45 nM
